According to patent EP2573192A1, “METHOD AND KIT FOR DIAGNOSING AIM-RELATED ILLNESS” (Miyazaki, Toru, priority 2010, dated 2011):

Target: FAS (Mus musculus, UniProt P19096)
Experiment: FAS activity of treated 3T3-L1 cells (method of Kelley, NADPH oxidation)
Type: cell-based
Settings: C75 25 µM, 6 days; compared with rAIM
Description: The influence of AIM on FAS activity of adipocyte or adipose tissue was examined. FAS activity was measured by the method of Kelley (Kelley et al., Biochem. J., 1986, 235:87-90) with slight modification. 3T3-L1 adipocytes, or lysates of adipose tissue of obese mice was mixed with acetyl-CoA and NADPH (0.2 M calcium phosphate buffer [pH 7.0] containing 0.4 mM EDTA), and the mixture was placed in a spectrophotometer cuvette and maintained at 30°C. 20 µl of malonyl-CoA solution (0.2 mM) was added to start an enzyme reaction and decrease of OD was measured at a chart speed 2 cm/min. Based on the results, the enzyme activity of FAS was evaluated using the molar extinction coefficient of oxidized NADPH as 6220.
First, the FAS activity of 3T3-L1 cells treated for 6 days in the presence or absence of rAIM (5 µg/ml), and in the presence of C75 (25 µM) was measured. […] The samples were dissolved (lysed) and the FAS activity was measured. The data was converted to that based on FAS protein, according to the results of WB performed using the same sample.

Chain of FAS (P19096 whole entry): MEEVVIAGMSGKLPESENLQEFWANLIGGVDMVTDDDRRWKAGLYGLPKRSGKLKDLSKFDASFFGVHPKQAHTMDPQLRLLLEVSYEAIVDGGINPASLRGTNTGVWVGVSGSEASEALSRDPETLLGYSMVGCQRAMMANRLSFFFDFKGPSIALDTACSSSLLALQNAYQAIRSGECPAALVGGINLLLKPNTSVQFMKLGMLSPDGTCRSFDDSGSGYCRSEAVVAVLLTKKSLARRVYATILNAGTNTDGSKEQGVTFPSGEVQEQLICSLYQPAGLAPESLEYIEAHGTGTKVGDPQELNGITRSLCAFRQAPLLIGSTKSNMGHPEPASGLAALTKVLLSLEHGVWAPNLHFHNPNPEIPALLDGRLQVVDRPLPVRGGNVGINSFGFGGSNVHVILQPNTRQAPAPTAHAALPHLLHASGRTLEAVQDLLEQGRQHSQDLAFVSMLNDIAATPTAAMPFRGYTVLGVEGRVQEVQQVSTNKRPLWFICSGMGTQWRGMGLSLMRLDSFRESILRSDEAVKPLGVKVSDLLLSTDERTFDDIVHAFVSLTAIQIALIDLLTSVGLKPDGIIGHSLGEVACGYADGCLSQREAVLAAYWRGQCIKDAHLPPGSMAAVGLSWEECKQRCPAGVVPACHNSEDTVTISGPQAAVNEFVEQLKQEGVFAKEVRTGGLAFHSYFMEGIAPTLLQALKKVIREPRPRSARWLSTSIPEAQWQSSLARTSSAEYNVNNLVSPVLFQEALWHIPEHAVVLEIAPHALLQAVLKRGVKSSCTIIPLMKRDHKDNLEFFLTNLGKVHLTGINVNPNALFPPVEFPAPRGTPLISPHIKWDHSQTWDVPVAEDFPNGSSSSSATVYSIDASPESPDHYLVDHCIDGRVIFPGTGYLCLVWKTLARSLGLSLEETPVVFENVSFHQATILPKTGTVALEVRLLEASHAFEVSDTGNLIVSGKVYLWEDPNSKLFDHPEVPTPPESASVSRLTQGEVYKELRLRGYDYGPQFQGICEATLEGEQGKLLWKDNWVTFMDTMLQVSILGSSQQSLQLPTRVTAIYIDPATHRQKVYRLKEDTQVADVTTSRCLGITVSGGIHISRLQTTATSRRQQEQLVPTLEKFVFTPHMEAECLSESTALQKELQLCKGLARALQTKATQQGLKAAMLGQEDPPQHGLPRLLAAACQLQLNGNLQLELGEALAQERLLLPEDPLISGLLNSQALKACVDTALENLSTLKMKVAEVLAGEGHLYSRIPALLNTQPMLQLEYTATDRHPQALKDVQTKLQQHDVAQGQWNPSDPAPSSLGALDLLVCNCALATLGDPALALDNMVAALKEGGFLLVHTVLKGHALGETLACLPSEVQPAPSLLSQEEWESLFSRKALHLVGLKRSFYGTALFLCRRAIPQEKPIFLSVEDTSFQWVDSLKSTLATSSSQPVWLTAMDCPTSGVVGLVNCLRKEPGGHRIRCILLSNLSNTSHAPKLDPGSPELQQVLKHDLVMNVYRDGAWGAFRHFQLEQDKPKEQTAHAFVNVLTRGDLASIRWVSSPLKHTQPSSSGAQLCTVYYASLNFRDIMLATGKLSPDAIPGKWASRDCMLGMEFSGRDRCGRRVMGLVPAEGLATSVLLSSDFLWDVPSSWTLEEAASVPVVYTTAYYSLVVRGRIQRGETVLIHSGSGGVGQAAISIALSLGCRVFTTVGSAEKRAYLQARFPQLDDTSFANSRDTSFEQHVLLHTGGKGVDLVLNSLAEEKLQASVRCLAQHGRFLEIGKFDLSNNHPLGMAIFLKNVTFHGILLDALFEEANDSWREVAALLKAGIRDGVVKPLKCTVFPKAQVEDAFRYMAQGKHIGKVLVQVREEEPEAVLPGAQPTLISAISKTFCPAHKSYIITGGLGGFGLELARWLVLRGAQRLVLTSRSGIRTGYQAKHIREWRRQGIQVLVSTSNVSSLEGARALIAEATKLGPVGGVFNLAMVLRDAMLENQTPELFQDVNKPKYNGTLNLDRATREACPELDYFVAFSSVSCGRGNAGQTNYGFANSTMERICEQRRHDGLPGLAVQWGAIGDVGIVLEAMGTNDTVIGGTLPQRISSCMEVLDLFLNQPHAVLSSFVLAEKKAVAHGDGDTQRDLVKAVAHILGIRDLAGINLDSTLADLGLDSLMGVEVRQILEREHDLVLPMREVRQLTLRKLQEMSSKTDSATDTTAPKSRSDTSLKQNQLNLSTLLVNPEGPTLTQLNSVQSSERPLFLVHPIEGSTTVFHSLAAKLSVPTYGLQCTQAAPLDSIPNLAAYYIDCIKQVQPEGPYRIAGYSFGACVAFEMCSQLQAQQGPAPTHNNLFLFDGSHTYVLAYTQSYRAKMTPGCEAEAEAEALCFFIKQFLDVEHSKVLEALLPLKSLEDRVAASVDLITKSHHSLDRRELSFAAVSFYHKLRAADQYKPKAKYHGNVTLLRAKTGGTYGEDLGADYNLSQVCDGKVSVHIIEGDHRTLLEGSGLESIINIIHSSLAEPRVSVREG

level of suppression of FAS activity in 3T3-L1 adipocytes: level of suppression was the same
SMILES: C=C1C(=O)OC(CCCCCCCC)C1C(=O)O (stereo not shown) [C75]
